According to patent publication US8658350B2 (priority 2008, dated 2014):

test system: CD8+ T cells; format: cell-based, human

Compound	# SFU	#SFU/250,000 CD8+ T-cells
CC(C)[C@H](NC(=O)[C@H](Cc1ccccc1)NC(=O)[C@H](CCCNC(=N)N)NC(=O)[C@H](C)NC(=O)[C@H](Cc1c[nH]cn1)NC(=O)[C@H](C)NC(=O)[C@H](C)N)C(=O)N[C@@H](C)C(=O)N[C@@H](C)C(=O)O	88	–
CC(C)[C@H](NC(=O)[C@H](C)NC(=O)[C@H](C)NC(=O)[C@H](CCC(N)=O)NC(=O)[C@H](C)NC(=O)[C@H](C)NC(=O)[C@@H](N)[C@@H](C)O)C(=O)N[C@H](C(=O)N[C@@H](CCCNC(=N)N)C(=O)N[C@@H](Cc1ccccc1)C(=O)O)C(C)C	258	–
CC(C)C[C@H](NC(=O)[C@H](Cc1ccc(O)cc1)NC(=O)[C@H](CO)NC(=O)[C@H](CCC(N)=O)NC(=O)[C@H](C)NC(=O)[C@@H](NC(=O)[C@@H]1CCCN1C(=O)[C@H](CO)NC(=O)[C@H](C)N)C(C)C)C(=O)O	210	–
CSCC[C@H](NC(=O)[C@@H](N)CCC(=O)O)C(=O)N[C@@H](CCCCN)C(=O)N[C@H](C(=O)N[C@@H](CC(=O)O)C(=O)N[C@@H](C)C(=O)N[C@@H](C)C(=O)N[C@H](C(=O)N[C@@H](CC(C)C)C(=O)O)[C@@H](C)O)[C@@H](C)O	387	–
RADEEQQQAL	120	–
CSCC[C@H](NC(=O)[C@H](CCC(=O)O)NC(=O)[C@H](C)N)C(=O)N[C@@H](CCCCN)C(=O)N[C@H](C(=O)N[C@@H](CC(=O)O)C(=O)N[C@@H](C)C(=O)N[C@@H](C)C(=O)N[C@H](C(=O)N[C@@H](CC(C)C)C(=O)N[C@@H](C)C(=O)O)[C@@H](C)O)[C@@H](C)O	1993	–
CC[C@H](C)[C@H](NC(=O)[C@@H](NC(=O)[C@H](C)N)C(C)C)C(=O)N[C@@H](CC(N)=O)C(=O)N[C@H](C(=O)N[C@H](C(=O)N[C@@H](CS)C(=O)N[C@@H](CC(N)=O)C(=O)N[C@@H](Cc1ccc(O)cc1)C(=O)NCC(=O)N[C@@H](CCC(N)=O)C(=O)O)[C@@H](C)O)[C@@H](C)O	24	–
QTVEDEARRMW	–	84
CC[C@H](C)[C@H](NC(=O)[C@H](Cc1c[nH]cn1)NC(=O)[C@H](C)NC(=O)[C@H](CC(=O)O)NC(=O)[C@H](CC(C)C)NC(=O)[C@@H](N)CC(C)C)C(=O)N1CCC[C@H]1C(=O)N[C@@H](CCC(N)=O)C(=O)N[C@@H](CC(C)C)C(=O)O	<10	–
ELPQWLSANR	<10	–
CSCC[C@H](NC(=O)[C@H](CCC(=O)O)NC(=O)[C@H](C)N)C(=O)N[C@@H](CCCCN)C(=O)N[C@H](C(=O)N[C@@H](CC(=O)O)C(=O)N[C@@H](C)C(=O)N[C@@H](C)C(=O)O)[C@@H](C)O	2458	–
CC[C@H](C)[C@H](NC(=O)[C@@H](N)CC(N)=O)C(=O)N[C@@H](CCCNC(=N)N)C(=O)N[C@@H](CCC(N)=O)C(=O)N[C@@H](C)C(=O)NCC(=O)N[C@H](C(=O)N[C@@H](CCC(N)=O)C(=O)N[C@@H](Cc1ccc(O)cc1)C(=O)O)C(C)C	1715	–
